Laboratory results as given in patent US20090118331A1, “Use of Lobeline Epimers in the Treatment of Central Nervous System Diseases, Pathologies, and Drug Abuse” (priority 2007, published 2009).
Where “and” joins values, the source holds several entries; their conditions need not be identical. Equal values may be shown once.

Assays:
[1] = Lobeline conversion to epimer in deionized water (HPLC); format: physicochemical
Method: Extensive in vitro studies on the epimerization of lobeline were conducted in a variety of aqueous media. […] The concentration of the lobeline solution (500 mL) was ca. 0.5 mg/mL, and 1.5 mL aliquot parts were removed in triplicate at each time point and analyzed by HPLC. Corresponding pH measurements were performed with a Coming Model 240 pH meter.

[2] = Pharmacokinetics of lobeline and epimer in human subjects after sublingual lobeline administration (7.5, 15, 30 mg); conditions: for AUCext (percent of AUC(0-∞) determined by extrapolation) / Tlast (time of last measurable plasma concentration) / λz (terminal exponential rate constant): lobeline in plasma; for AUCext (percent of AUC(0-∞) determined by extrapolation) / Tlast (time of last measurable plasma concentration) / λz (terminal exponential rate constant) / CL/F (extravascular clearance): individual human subjects; for CL/F (extravascular clearance): lobeline
Excerpt: The pharmacokinetics of lobeline and lobeline epimer were examined in eight human subjects (Sub) after sublingual lobeline administration.

[3] = Lobeline conversion to epimer in the HEPES buffer system used at 25° C. in the [^3H]DTBZ binding study (HPLC); format: physicochemical; conditions: for Lobeline %: [^3H]DTBZ binding buffer, 25° C.
Method: The initial dissolution of lobeline in water was followed by a 1:1 dilution of this stock solution in the appropriate HEPES buffer system, incubation at the prescribed temperature, and HPLC assay of each epimer and potential degradants over 2 hour incubation.
After 2 hours, the 25° C.

[4] = Lobeline epimerization in pH 7.4 phosphate buffer control; conditions: after 2 hours, with impurity
Method: In order to determine the tendency of lobeline to undergo epimerization in the HEPES buffer employed in the 25° C. [^3H]DTBZ binding study and the 37° C. VMAT2 uptake studies previously described, analogous solution epimerization experiments were conducted using the corresponding conditions for each individual assay. […] As this dynamic phenomenon occurs, the ratio of lobeline to lobeline epimer in solution naturally changes over time. Further, depending upon the solution conditions, the rate and extent of epimerization may vary; thus, a ratio of lobeline to epimer, if achieved, may occur at various time points. After 2 hours, the 25° C. […] The epimerization of lobeline in the 37° C.

clinical = conditions: human, in vivo
Method: Three consecutive doses of lobeline (either 30, 45 and 45 mg in the first study group, or 60, 60 and 60 mg in the second group) were administered to human volunteers at 0800, 1200 and 1600 over two full inpatient days. The pharmacokinetics of lobeline and epimer were then assessed in each subject. […] A crude index of accumulation (non-steady state) was obtained by dividing the sixth dose trough concentration by that observed for the fifth dose.

[5] = sublingual lobeline 30.0 mg, listed as lobeline

SMILES: CN1[C@@H](CC(=O)c2ccccc2)CCC[C@H]1C[C@H](O)c1ccccc1 [Lobeline, 2-[6S-(2S-hydroxy-2-phenyl-ethyl)-1-methyl-piperidin-2R-yl]-1-phenyl-ethanone]
- % Lobeline (Mean ± SD) ([1]; Solution 1 (Lobeline in “fresh” DI Water), time 0, pH 6.02): 99.16%
- % Lobeline (Mean ± SD) ([1]; Solution 1 (“fresh” DI Water), 15 min, pH 6.03-6.24): 99.17 ± 0.053%
- % Lobeline (Mean ± SD) ([1]; Solution 1 (“fresh” DI Water), 30 min, pH 6.02-6.24): 99.01 ± 0.162%
- % Lobeline (Mean ± SD) ([1]; Solution 1 (“fresh” DI Water), 45 min, pH 6.13-6.37): 99.06 ± 0.146%
- % Lobeline (Mean ± SD) ([1]; Solution 1 (“fresh” DI Water), 1 h, pH 6.26-6.52): 99.00 ± 0.195%
- % Lobeline (Mean ± SD) ([1]; Solution 1 (“fresh” DI Water), 80 min, pH 6.19-6.50): 98.54 ± 0.112%
- % Lobeline (Mean ± SD) ([1]; Solution 1 (“fresh” DI Water), 100 min, pH 6.16-6.50): 98.50 ± 0.139%
- % Lobeline (Mean ± SD) ([1]; Solution 1 (“fresh” DI Water), 2 h, pH 5.63-5.88): 98.42 ± 0.601%
- % Lobeline (Mean ± SD) ([1]; Solution 2 (Lobeline in “8-h” DI Water), time 0, pH 7.87): 98.97%
- % Lobeline (Mean ± SD) ([1]; Solution 2 (“8-h” DI Water), 15 min, pH 7.78-8.21): 99.34 ± 0.274%
- % Lobeline (Mean ± SD) ([1]; Solution 2 (“8-h” DI Water), 30 min, pH 7.58-7.85): 99.49 ± 0.215%
- % Lobeline (Mean ± SD) ([1]; Solution 2 (“8-h” DI Water), 45 min, pH 7.66-7.68): 99.35 ± 0.056%
- % Lobeline (Mean ± SD) ([1]; Solution 2 (“8-h” DI Water), 1 h, pH 6.84-7.11): 99.20 ± 0.085%
- % Lobeline (Mean ± SD) ([1]; Solution 2 (“8-h” DI Water), 80 min, pH 6.53-6.79): 99.11 ± 0.150%
- % Lobeline (Mean ± SD) ([1]; Solution 2 (“8-h” DI Water), 100 min, pH 6.24-6.51): 98.99 ± 0.206%
- % Lobeline (Mean ± SD) ([1]; Solution 2 (“8-h” DI Water), 2 h, pH 6.21-6.49): 98.78 ± 0.258%
- conversion of lobeline to lobeline epimer ([1]; fresh deionized water or water allowed to absorb atmospheric carbon dioxide for up to 8 hours, 2 hour time course): ca. 1%
- dose linearity of Cmax and CL/F ([2]; dose range from 7.5 to 30 mg, sublingual, human): Linear kinetics
- Combined urinary excretion of lobeline and epimer ([2]; human, in vivo): ≤ 0.5%
- AUC(0-inf) ([2]; human, in vivo, 30 mg): 8.02 ng·h/mL
- half-life ([2]; human, in vivo, 30 mg, Terminal exponential phase half-life (T1/2), average): ~2.4 h
- half-life ([2]; human, in vivo, 30 mg, Terminal exponential phase half-lives (T1/2 values), range): 1 to 5 h
- Tmax ([2]; human, in vivo, 30 mg, Tmax values, range): 0.25 to 3 h
- Tmax ([2]; human, in vivo, 30 mg, Tmax, average): 1.4 h
- half-life ([2]; human, in vivo, mean T1/2 values, human subjects, sublingual lobeline): ~2 h
- equilibrium ratio of lobeline to epimer ([2]; humans): 1 to 10
- AUCext (percent of AUC(0-∞) determined by extrapolation) ([2]; sublingual lobeline 7.50 mg): 39.3% and 21.5% and 38.5% and 19.2% and 18.0% and 12.3% and 13.6% and 29.5%
- Tlast (time of last measurable plasma concentration) ([2]; sublingual lobeline 7.50 mg): 3.03 hr and 4.00 hr (3×) and 4.05 hr and 6.00 hr (2×) and 12.00 hr
- λz (terminal exponential rate constant) ([2]; sublingual lobeline 7.50 mg): 0.401 h⁻¹ and 0.403 h⁻¹ and 0.195 h⁻¹ and 0.295 h⁻¹ and 0.277 h⁻¹ and 0.183 h⁻¹ and 0.555 h⁻¹ and 0.367 h⁻¹
- AUCext (percent of AUC(0-∞) determined by extrapolation) ([2]; sublingual lobeline 15.0 mg): 16.1% and 14.1% and 6.24% and 6.52% and 14.5% and 12.7% and 18.7% and 18.1%
- Tlast (time of last measurable plasma concentration) ([2]; sublingual lobeline 15.0 mg): 4.17 hr and 4.00 hr and 6.00 hr (3×) and 8.00 hr (2×) and 11.00 hr
- λz (terminal exponential rate constant) ([2]; sublingual lobeline 15.0 mg): 0.513 h⁻¹ and 0.544 h⁻¹ and 0.573 h⁻¹ and 0.341 h⁻¹ and 0.322 h⁻¹ and 0.206 h⁻¹ and 0.185 h⁻¹ and 0.321 h⁻¹
- Tlast (time of last measurable plasma concentration) ([2]; sublingual lobeline 30.0 mg): 8.02 h
- AUCext (percent of AUC(0-∞) determined by extrapolation) [2, 5]: 7.44% and 6.59% and 5.81% and 5.16% and 20.3% and 3.50% and 8.86% and 5.87%
- Tlast (time of last measurable plasma concentration) [2, 5]: 4.00 h and 6.05 h and 12.17 h and 8.03 h and 22.75 h and 6.00 h and 8.00 h
- λz (terminal exponential rate constant) [2, 5]: 0.878 h⁻¹ and 0.469 h⁻¹ and 0.314 h⁻¹ and 0.254 h⁻¹ and 0.149 h⁻¹ and 0.151 h⁻¹ and 0.376 h⁻¹ and 0.380 h⁻¹
- CL/F (extravascular clearance) ([2]; sublingual lobeline 7.50 mg): 2328 mL/min/kg and 844 mL/min/kg and 1116 mL/min/kg and 623 mL/min/kg and 792 mL/min/kg and 179 mL/min/kg and 1502 mL/min/kg and 1051 mL/min/kg
- CL/F (extravascular clearance) ([2]; sublingual lobeline 15.0 mg): 1995 mL/min/kg and 866 mL/min/kg and 1364 mL/min/kg and 550 mL/min/kg and 1183 mL/min/kg and 188 mL/min/kg and 1194 mL/min/kg and 1068 mL/min/kg
- CL/F (extravascular clearance) ([2]; sublingual lobeline 30.0 mg): 1809 mL/min/kg and 1169 mL/min/kg and 1269 mL/min/kg and 572 mL/min/kg and 1736 mL/min/kg and 162 mL/min/kg and 2340 mL/min/kg and 857 mL/min/kg
- final component concentration (as a function of the area under the curve) ([3]; HEPES [^3H]DTBZ binding buffer, after 2 hours at 25° C.): 83%
- Lobeline % ([3]; T0, sample age 0:01): 98.5%
- Lobeline % ([3]; T5, sample age 0:06): 97.8%
- Lobeline % ([3]; T10, sample age 0:10): 96.7%
- Lobeline % ([3]; T15, sample age 0:15): 95.5%
- Lobeline % ([3]; T20, sample age 0:20): 94.7%
- Lobeline % ([3]; T25, sample age 0:25): 94.1%
- Lobeline % ([3]; T30, sample age 0:31): 92.8%
- Lobeline % ([3]; T35, sample age 0:35): 92.7%
- Lobeline % ([3]; T40, sample age 0:40): 91.3%
- Lobeline % ([3]; T45, sample age 0:45): 90.7%
- Lobeline % ([3]; T50, sample age 0:50): 90.1%
- Lobeline % ([3]; T55, sample age 0:55): 89.9%
- Lobeline % ([3]; T60, sample age 1:00): 89.1%
- Lobeline % ([3]; T70, sample age 1:10): 87.8%
- Lobeline % ([3]; T80, sample age 1:20): 86.6%
- Lobeline % ([3]; T90, sample age 1:31): 85.5%
- Lobeline % ([3]; T100, sample age 1:40): 84.5%
- Lobeline % ([3]; T110, sample age 1:50): 83.5%
- Lobeline % ([3]; T120, sample age 2:01): 82.7%
- component content of solution ([4]; pH 7.4 phosphate buffer control, same temperature as 25° C. binding buffer): 64%
- component content of solution ([4]; phosphate buffer control for the 37° C. VMAT2 uptake buffer): 62%
- half-life (clinical): 3.91 h
